Reference: patent US20240094197A1, “Method for removing protein corona of the surface of nanometer particle” (ZHEJIANG UNIVERSITY, priority 2022, published 2024)
Read-outs that look alike come from different tables or passages of the source.

How the values were obtained:
BxPC3 cells [1] = assay: Endocytic pathway in tumor cells (endocytosis inhibitors); assay type: cell-based, human; settings: chlorpromazine 50 μM, genistein 200 μM, wortmannin 5 μM, cytochalasin D 5 μM; for inhibition rate on the endocytosis of LPGL in BxPC3 cells: serum-containing medium; for inhibition at 200 µM / inhibition at 50 µM / inhibition at 5 µM: Homo sapiens
Experimental: BxPC3 cells (1×10^5 cells/mL, 1 mL) were cultured in 12-well plates for 24 h, and the culture medium was then replaced with 1 mL fresh serum-free medium. Chlorpromazine (50 μM, clathrin-mediated endocytosis inhibitor), genistein (200 μM, caveolae-mediated endocytosis inhibitor), wortmannin (5 μM, phosphatidylinositol 3-kinases-mediated macropinocytosis inhibitor), or cytochalasin D (5 μM, actin-polymerization inhibitor) was added to the medium for 2 h of incubation. Another group of BxPC3 cells without any endocytosis inhibitor treatment was cultured for 2 h as the control group. Next, the mixture of Cy5-labeled LPGL liposome (equivalent to fluorescent lipids of 60 μg/mL, 20 μL) and serum-containing medium or serum-free medium was respectively added into the plate, and subsequently treated with or without ultrasound stimulation (acoustic intensity: 2 W/cm^2, frequency: 3 MHz, duty cycle: 50%, duration time: 5 min). After incubation of 3 h, cells were washed, digested and collected into a centrifugal tube, and the mean fluorescence intensity was detected by flow cytometry.

[2] = system: 3D multicellular tumor spheroids of BxPC3; assay: Penetration in tumor spheroids (CLSM); assay type: cell-based, human; settings: EXO1 20 μM pretreatment
Experimental: The 3D multicellular tumor spheroids of BxPC3 pretreated with or without exocytosis inhibitor EXO1 (20 μM) were transferred to a confocal dish containing fresh serum-free medium. The mixture of Cy5-labeled LPGL, PGL, LGL or GL liposome (equivalent to fluorescent lipids of 60 μg/mL, 30 μL) and fresh serum-containing medium were added, and treated with ultrasound stimulation (acoustic intensity: 2 W/cm^2, frequency: 3 MHz, duty cycle: 50%, duration time: 5 min), then incubated for 6 h. After washing with PBS, images were obtained with CLSM in XYZ-3D-stack at 25-μm intervals from apex to equator.

BxPC3 cells [3] = assay: Transcytosis transport in tumor cells; assay type: cell-based, human; settings: BxPC3 cells pretreated with EXO1 20 μM; serum-containing medium, with ultrasound stimulation
Experimental: BxPC3 cells (1×10^5 cells/mL, 1 mL) were cultured in a confocal dish for 24 h, and the culture medium was then replaced with 1 mL fresh serum-free medium. Next, the mixture of Cy5-labeled GL, LGL, PGL or LPGL liposome (equivalent to fluorescent lipids of 60 μg/mL, 20 μL) and serum-containing medium or serum-free medium was respectively added into the confocal dish, and subsequently treated with or without ultrasound stimulation (acoustic intensity: 2 W/cm^2, frequency: 3 MHz, duty cycle: 50%, duration time: 5 min). After incubation of 3 h, the dishes were washed twice with PBS. A total of 1×10^5 fresh cells in 1 mL of fresh serum-free medium was added to the dishes. The mixed cells were continuously incubated for 0 min, 30 min, and 120 min. The transcellular transport of liposome from previously added cells to newly added cells was photographed at incubation time of 0 min, 30 min, and 120 min with a CLSM using 640 nm excitation wavelength. Then the newly added cells at 120 min of incubation were washed away and collected into a centrifugal tube, and detected using flow cytometry. Meanwhile, BxPC3 cells pretreated with an exocytosis inhibitor EXO1 (20 μM) were tested using the same method to investigate the inhibition of transcellular transport.

[4] = system: 3D multicellular tumor spheroids of BxPC3; assay: Morphology and apoptosis of tumor spheroids (light microscope, TUNEL staining); assay type: cell-based, human; settings: equivalent to GEM 0.1 μM, serum-containing medium, ultrasound stimulation, 72 h
Experimental: The method for inhibiting 3D multicellular tumor spheroids of BxPC3 with free GEM and different liposomes is as follows: the mixture of LPGL, PGL, LGL, GL liposome, free gemcitabine (GEM) or PBS and serum-containing medium was incubated with 3D multicellular tumor spheroids of BxPC3 at the final testing concentrations (equivalent to GEM: 0.1 μM), and treated with ultrasound stimulation (acoustic intensity: 2 W/cm^2, frequency: 3 MHz, duty cycle: 50%, duration time: 5 min), then incubated for 72 h, the morphology of 3D multicellular tumor spheroids of BxPC3 in different treatment group was observed using light microscope and TUNEL staining, scale bar=500 μm. […] (10E) The mean integrated optical density (IOD) of fluorescence in two inner layers of 75 μm and 100 μm (as shown in FIG. 10 D) in 3D multicellular tumor spheroids of BxPC3 was analyzed using Image-pro Plus 6.0 software to evaluate the penetration ability of liposome.
The cytotoxicity of the liposome was tested on the three-dimensional (3D) multicellular tumor spheroids of BxPC3 or Huh7. […] The sample plates were then detected using a plate reader at 530 nm excitation and 590 nm emission to obtain fluorescence intensity readouts. In addition, apoptosis induced by the liposome in spheroids were further determined by the TdT-mediated dUTP nick end labeling (TUNEL) assay, and the positive TUNEL-staining cells were examined by CLSM.

[5] = system: three-dimensional (3D) multicellular tumor spheroids of Huh7; assay: Cytotoxicity on 3D multicellular tumor spheroids (Alamar Blue); assay type: cell-based, human; settings: serum-containing medium, ultrasound stimulation, 72 h, equivalent to GEM 0~10 μM
Experimental: (§1) The cytotoxicity of the liposome was tested on the three-dimensional (3D) multicellular tumor spheroids of BxPC3 or Huh7. The tumor spheroids were established using the hanging drop method. The mixture of LPGL, PGL, LGL, GL or free gemcitabine (GEM) and serum-containing medium were respectively added into the wells containing three-dimensional (3D) multicellular tumor spheroids of BxPC3 or Huh7 at the final testing concentrations (equivalent to GEM: 0˜10 μM), and treated with ultrasound stimulation (acoustic intensity: 2 W/cm^2, frequency: 3 MHz, duty cycle: 50%, duration time: 5 min), then incubated for 72 h. Meanwhile, the LPL liposome with equimolar ratio to LPGL liposome was tested as a control. Afterward, the culture medium was replaced with a mixture of 90 μL fresh culture medium and 10 μL Alamar Blue Cell Viability Reagent, and was continuously incubated for 12 h. The sample plates were then detected using a plate reader at 530 nm excitation and 590 nm emission to obtain fluorescence intensity readouts. In addition, apoptosis induced by the liposome in spheroids were further determined by the TdT-mediated dUTP nick end labeling (TUNEL) assay, and the positive TUNEL-staining cells were examined by CLSM.

[6] = system: three-dimensional (3D) multicellular tumor spheroids of BxPC3; assay: as above; assay type: cell-based, human; settings: serum-containing medium, ultrasound stimulation, 72 h, equivalent to GEM 0~10 μM
Experimental: as §1

[7] = system: human-derived tumor xenograft of PDA; assay: In vivo antitumor activity (PDA model); set-up: species or system BALB/c nude mice
Experimental: BALB/c nude mice bearing human-derived tumor xenograft of PDA in the subcutaneous region were selected and grouped into seven groups (n=6). Each group was intravenously injected with LPGL liposome dispersion (dose equivalent to GEM 10 mg/kg), PGL liposome dispersion (dose equivalent to GEM 10 mg/kg), LGL liposome dispersion (dose equivalent to GEM 10 mg/kg), GL liposome dispersion (dose equivalent to GEM 10 mg/kg), GEM PBS7.4 dispersion (dose equivalent to GEM 10 mg/kg), LPL liposome dispersion or PBS 7.4 buffer respectively every two days for a total of four times. The 16th day was the first time of intravenous injection administration. The tumor site of each group was treated with ultrasound stimulation (acoustic intensity: 2 W/cm^2, frequency: 3 MHz, duty cycle: 50%, duration time: 20 min) after post-injection. The width and length of the tumors and the bodyweight of mice were measured during the treatment. At the end of the experiment at 36 days, the blood was collected, then mice were euthanized, tumors were dissected and weighed. The therapeutic efficacy was evaluated by comparing tumor size in the experimental group and control group. The tumor inhibition rate=100%×(mean tumor weight of PBS group−mean tumor weight of experimental group)/mean tumor weight of PBS group. The dissected tumors were fixed with 4% neutral buffered paraformaldehyde and embedded in paraffin. Tissue sections of 5-μm thick were mounted onto glass slides and stained with hematoxylin-eosin (H&E), and then examined by light microscopy. The immunohistochemistry staining of Ki67 was tested to investigate the percentage of proliferous tumor cells positively stained in the examined field. Tissue sections were subjected to Ki67 staining using the Ki67-antibody Assay Kit according to the manufacturer's protocol. Apoptotic cells were also identified using TUNEL Apoptosis Assay Kit and examined using CLSM

[8] = system: human-derived tumor xenograft of HCC; assay: In vivo antitumor activity and toxicity (HCC model); set-up: species or system BALB/c nude mice
Experimental: The study of liposome and its characteristics and anti-tumor activity in Example 2 was the same as that in Example 1. The difference was that LPGL liposome and LGL liposome were prepared by replacing DSPE-PEG2000-RGD with DSPE-PEG2000-NGR. The DSPE-PEG2000-NGR refers to 1,2-distearoyl-sn-glycero-3-phosphoethanolamine-N-[methoxy (polyethylene glycol)-2000]-NGR targeting peptide, the amino acid sequence of NGR targeting peptide was Gly (glycine)-Gly (glycine)-Cys (cysteine)-Asn (asparagine)-Gly (glycine)-Arg (arginine)-Cys (cysteine) with the amino acid sequence GGCNGRC (SEQ ID NO: 2).
BALB/c nude mice bearing human-derived tumor xenograft of hepatocellular carcinoma (HCC) in the subcutaneous region were selected and grouped into six groups (n=9, wherein three mice of each group were selected to measure the accumulation content of gemcitabine triphosphate active metabolite (dFdCTP) in the tumor after 24 h of first intravenous injection). Same to the PDA model in the Example 1, after BALB/c nude mice subcutaneously bearing human-derived tumor xenograft of HCC were injected with free GEM PBS 7.4 buffer, GL liposome, NGR modified LGL liposome, PGL liposome, NGR modified LPGL liposome or PBS 7.4, the tumor site was treated with ultrasound stimulation (+US, acoustic intensity: 2 W/cm^2, frequency: 3 MHz, duty cycle: 50%, duration time: 20 min). At 24 h after firstly intravenous injection, the accumulation content of gemcitabine triphosphate active metabolite (dFdCTP) in the tumor was shown in FIG. 17B. As GEM could quickly be phosphorylated into its active metabolite of GEM triphosphate (dFdCTP) in tumor, so the dFdCTP was widely used as a quantitative index of GEM.
The tumor size and the bodyweight of mice in each group was shown in FIG. 17C, FIG. 17D, FIG. 17E and FIG. 17F. […] At the end of the 34-day experiment, the mice serum was sampled, and the content of alanine aminotransferase (ALT), aspartate aminotransferase (AST), creatinine (CRE) and blood urea nitrogen (BUN) in the serum was detected to evaluate the in vivo hepatic and renal toxicity (as shown in Table 4).

[9] = BXPC-3, serum-containing medium, with ultrasound stimulation, read-out: inhibition rate on the endocytosis of LPGL in BxPC3 cells
[10] = BXPC-3, serum-containing medium, without ultrasound stimulation, read-out: inhibition rate on the endocytosis of LPGL in BxPC3 cells
[11] = BXPC-3, serum-free medium, without ultrasound stimulation, read-out: inhibition rate on the endocytosis of LPGL liposome in BxPC3 cells
[12] = mice serum, end of the 34-day experiment, LGL and LPGL are NGR modified

In the case of `C=C1[C@@H](C)[C@H]2[C@H](Cc3ccccc3)NC(=O)[C@]23[C@H](OC(C)=O)/C=C/[C@@](C)(O)C(=O)[C@@H](C)C/C=C/[C@H]3[C@@H]1O` [cytochalasin D], the “inhibition rate on the endocytosis of LPGL in BxPC3 cells” value (BxPC3 cells [1]; with ultrasound stimulation) is reported as 17.0%, the “inhibition rate on the endocytosis of LPGL in BxPC3 cells” value (BxPC3 cells [1]; without ultrasound stimulation) is reported as 10.2% and the “inhibition rate on the endocytosis of LPGL liposome in BxPC3 cells” value (BxPC3 cells [1]; serum-free medium, without ultrasound stimulation) is reported as 19.9%.
Compound `O=c1c(-c2ccc(O)cc2)coc2cc(O)cc(O)c12` [genistein] has an inhibition at 200 µM (BxPC3 cells [1]; [9]) of 52.5%, an inhibition at 200 µM (BxPC3 cells [1]; [10]) of 28.9% and an inhibition at 200 µM (BxPC3 cells [1]; [11]) of 57.6%.
`COC(=O)c1ccccc1NC(=O)c1ccc(F)cc1` [EXO1] was tested, and the “effect on permeability of LPGL liposome into the 3D spheroid of BxPC3” value [2] was “could significantly inhibit the permeability of LPGL liposome” and the “effect on transcytosis transport of LPGL liposome” value (BxPC3 cells [3]) was “could be inhibited”.
`Nc1ccn([C@@H]2O[C@H](CO)[C@@H](O)C2(F)F)c(=O)n1` [GEM, gemcitabine] was tested, and the “apoptotic cells in BxPC3 spheroids (TUNEL staining)” value [4] was “few apoptotic cells distributed around the spheroid's periphery”, the “morphology of BxPC3 spheroids (light microscope)” value [4] was “no significant change in morphology” and the “cytotoxicity against 3D multicellular tumor spheroids of Huh7” value [5] was “dose-dependent cytotoxicity”. The “cytotoxicity against 3D multicellular tumor spheroids of BxPC3” value [6] was “dose-dependent cytotoxicity”, the “side effects: body weight, white blood cell (WBC) and blood platelet” value ([7]; during treatment / end of the 36-day experiment) was “distinct body weight loss, and hematological damage on sharp decrease of white blood cell (WBC) and blood platelet” and the “H&E staining of excised tumors, vs LPL liposome and PBS” value ([7]; end of the 36-day experiment) was “much less densely populated cells”. The “distribution of apoptotic cells in tumor (TUNEL assay)” value ([7]; end of the 36-day experiment) was “merely existed around the tumor periphery”, the “change of tumor volume” value ([7]; i.v. every two days, four times, dose equivalent to GEM 10 mg/kg, ultrasound on tumor 20 min) was “firstly delayed, but then recovered to grow when stopping administration” and the bodyweight of mice ([8]; during treatment) was “gradually decreased”. For the same compound, the “content of AST, ALT, BUN and CRE relative to normal range” value ([8]; mice serum, end of the 34-day experiment) was “beyond the maximum of normal limit”, the ALT [8, 12] was 81.1 ± 10.5 U/L and the AST [8, 12] was 218.6 ± 25.3 U/L. It also gave a BUN [8, 12] of 47.6 ± 5.0 mg/dL and a CRE [8, 12] of 0.68 ± 0.17 mg/dL.
In the case of `CN(C)CCCN1c2ccccc2Sc2ccc(Cl)cc21` [chlorpromazine], the inhibition at 50 µM (BxPC3 cells [1]; [9]) is reported as 24.4%, the inhibition at 50 µM (BxPC3 cells [1]; [10]) is reported as 35.9% and the inhibition at 50 µM (BxPC3 cells [1]; [11]) is reported as 21.1%.
`COC[C@H]1OC(=O)c2coc3c2[C@@]1(C)C1=C(C3=O)[C@@H]2CCC(=O)[C@@]2(C)C[C@H]1OC(C)=O` [wortmannin] was tested, and the inhibition at 5 µM (BxPC3 cells [1]; BXPC-3, read-out: inhibition rate on the endocytosis of LPGL in BxPC3 cells, serum-containing medium, with ultrasound stimulation) was 24.8%, the inhibition at 5 µM (BxPC3 cells [1]; BXPC-3, read-out: inhibition rate on the endocytosis of LPGL in BxPC3 cells, serum-containing medium, without ultrasound stimulation) was 23.5% and the inhibition at 5 µM (BxPC3 cells [1]; BXPC-3, read-out: inhibition rate on the endocytosis of LPGL liposome in BxPC3 cells, serum-free medium, without ultrasound stimulation) was 13.4%.
